The text below walks through data of patent publication US10174065B2, “Antidiabetic enolic glucoside of phenylpyruvic acid” (ZADEC APS, priority 2010, dated 2019).

What is called EC50 is the concentration giving half of the maximal effect. A lower EC50 goes with an effect from little substance.

The subject of assay [1] is 3T3-L1 adipocytes. Description: Glucose uptake in transformed 3T3-L1 adipocytes (colourometric glucose oxidase method). The format is cell-based. The settings on record: for Glucose conc.: glucose remaining in the media after 3 hour exposure to the cells; for Glucose conc. / Glucose Uptake: media containing 8 mM glucose; for Glucose Uptake: glucose uptake from the media after 3 hour exposure; for % uptake: relative to DMSO vehicle = 100.00, 3 hour glucose uptake; for glucose uptake over a 3 hour culture period: 3T3-L1 adipose cells. As to the method:
3T3-L1 cells were transformed in culture using modified DMEM differentiation media supplemented with insulin, dexametasone and isobutylmethylxanthine and cultured for 3 days. The transformed 3T3-L1 adipocytes were then cultured for a further 5 days in modified DMEM supplemented with 10% FCS before being exposed to insulin, metformin and compounds of the present invention (see Table 1). Glucose uptake over a three (3) hour period was determined after the 5 days of treatment using a colourometric glucose oxidase method (Biovision Inc, USA).
The glucose concentration column represents the glucose concentration remaining in the media following three (3) hour exposure to the cells. The glucose uptake column represents glucose uptake from the media after a 3 hour exposure. SD represents the standard deviation. The percentage increases calculated from the relevant solvent vehicle and the P=values are reflected in the last two columns respectively.

The subject of assay [2] is Chang cells. As to the kind of experiment: 2-deoxy-[3H]-D-glucose uptake assay. The format is cell-based. The following applies: Chang cell cultures, 3 hrs exposure. Here is the method: The glucose uptake of RX-1 and selected analogues after administration of test compounds to Chang cell cultures were determined in an operating protocol for the 2-deoxy-[^3H]-D-glucose. The protocol, which is described in more detail below, has been designed to test for the RX-1 (and RX-1 analogues) mediated glucose uptake. In Table the EC50 values for the uptake for RX-1 and representative analogues is shown.
Stock solutions of the RX-1 analogues supplied in cryo vials (DrugMode) was prepared by diluting the compound with […] sterile tissue culture grade water. This will yield a 5 mM stock solution. If the analogue […] an additional 50 μl methanol will be added (this will be recorded clearly on the log sheet). This will yield a 4 mM stock solution. Stock solutions will be kept on ice at all times and analogues will be stored in 20 μl aliquots at −80 C for subsequent use. Tubes that have been thawed will be clearly marked on the label.
RX-1 (10 μM) Positive Control Solution • To prepare a 10 μM RX-1 solution as positive control. Add 30 μl to 2970 μl modified DMEM media supplemented with 8 mM glucose.
RX-1 Analogue (31.6 μM) Test Solutions • To prepare a 31.6 μM RX-1 analogue test solution. Add 19 μl of the 5 mM to 2981 μl modified DMEM media supplemented with 8 mM glucose. To prepare a 31.6 μM RX-1 analogue test solution from a 4 mM stock solution, add 24 μl to 2976 μl modified DMEM media supplemented with 8 mM glucose.
Cell Seeding in 24-Well Plates • Chang cells are cultured according to procedures described in MRC cell culture SOPs: TC-B2a Thawing of cells and TC-B1a Cell line maintenance—general principles. Make sure cells are in the log phase (i.e. <70% confluence) and less than 20 passages. • Harvest cells using 0.25% (w/v) Trypsin/0.53 mM EDTA solution. • Count cells and resuspend to 30 000 cells/ml (Chang cell seeding density for 24-well plate=30 000 cells/ml) in EMEM (with pyruvate and NEAA, but without L-glutamate (Lonza, USA) containing 10% FBS (Gibco, UK) and pipette 1 ml/well cell suspension to a 24-well plate corresponding to 30 000 cells/well.
• after 3 days of cell growth, aspirate medium • wash cells once with pre-warmed DPBS at 37° C. • add 500 μl of pre-warmed 37° C. DMEM/0.1% BSA (without phenol red, glucose and pyruvate) to serum starve cells to remove residual glucose and FBS • incubate at 37° C. in humidified air and 5% CO2 for 30 min • aspirate DMEM/0.1% BSA (without phenol red, glucose and pyruvate) • Prepare test dilutions as specified in the plate layout (see below) • add 500 μl pre-warmed 37° C. of test dilution per well according to plate layout • incubate at 37° C. in humidified air and 5% CO2 for 3 hrs • remove test medium and wash cells once with DPBS (37° C.) • add 250 μl of test medium containing 0.5 μCi/ml ^3H-2-DOG to each well use (0.5 μl ^3H to 1 ml medium) • Incubate cells at 37° C. in humidified air and 5% CO2 for 15 min • Aspirate medium • To stop the reaction, wash cells twice with ice-cold DPBS • Aspirate DPBS and ensure that wells are as dry as possible • Lyse cells by adding 1 ml of 0.3N NaOH/1% SDS and incubate at 37° C. for at least 45 min • Mix cell lysate thoroughly before subsequent use in LSC and Bradford protein determination

On to `CN(C)C(=N)N=C(N)N` [Metformin, reference compound], for which, in assay [1], the Glucose conc. is 3.27 nM/ul, the “Glucose Uptake” value was determined as 2.73 nM/ul and the “% uptake” value is reported as 117.14%.

`COC(=O)/C(=C/c1ccccc1)O[C@@H]1O[C@H](CO)[C@@H](O)[C@H](O)[C@H]1O` [RX-1 acrylate, (Z)-Methyl 3-phenyl-2-((2S,3R,4S,5S,6R)-3,4,5-trihydroxy-6-(hydroxymethyl)tetra hydro-2H-pyran-2-yloxy)acrylate]: in assay [1], the “glucose uptake over a 3 hour culture period” value is listed as “significantly increased”, the Glucose conc. is reported as 2.82 nM/ul, the “Glucose Uptake” value amounted to 3.16 nM/ul and the “% uptake” value came to 135.53%. In the same order, the values of `COC(=O)/C(=C/c1ccccc1)O[C@@H]1O[C@H](COC(C)=O)[C@@H](OC(C)=O)[C@H](OC(C)=O)[C@H]1OC(C)=O` [RX-1 triacetate, (2R,3R,4S,5R,6S)-2-(Acetoxymethyl)-6-((Z)-3-methoxy-3-oxo-1-phenylprop-1-en-2-yloxy)tetrahydro-2H-pyran-3,4,5-triyl triacetate] are “significantly increased”, 2.92 nM/ul, 3.05 nM/ul and 130.78%. For `O=C(O)/C(=C/c1ccccc1[N+](=O)[O-])O[C@H]1O[C@@H](CO)[C@H](O)[C@@H](O)[C@@H]1O` [RX-2, (Z)-3-(2-Nitrophenyl)-2-(((2R,3S,4R,5R,6S)-3,4,5-trihydroxy-6-(hydroxymethyl)tetrahydro-2H-pyran-2-yl)oxy)acrylic acid], in assay [2], the midpoint of the response, the EC50, lay at 9.35 µM. In assay [2], `O=C(O)/C(=C/c1ccccc1F)O[C@H]1O[C@@H](CO)[C@H](O)[C@@H](O)[C@@H]1O` [RX-4, (Z)-3-(2-Fluorophenyl)-2-(((2R,3S,4R,5R,6S)-3,4,5-trihydroxy-6-(hydroxymethyl)tetrahydro-2H-pyran-2-yl)oxy)acrylic acid] returned an EC50 of 80.8 µM. This EC50 is about 8.6-fold higher than that of the compound before. `O=C(O)/C(=C/c1cccc(F)c1)O[C@H]1O[C@@H](CO)[C@@H](O)[C@@H](O)[C@@H]1O` [RX-5, (Z)-3-(3-Fluorophenyl)-2-(((2R,3S,4R,5S,6S)-3,4,5-trihydroxy-6-(hydroxymethyl)tetrahydro-2H-pyran-2-yl)oxy)acrylic acid] came in with an EC50 in assay [2] of 114 µM. On the same count and under the same terms, the value for `O=C(O)/C(=C/c1cccc(C(F)(F)F)c1)O[C@H]1O[C@@H](CO)[C@@H](O)[C@@H](O)[C@@H]1O` [RX-10, (Z)-3-(3-(Trifluoromethyl)phenyl)-2-(((2R,3S,4R,5S,6S)-3,4,5-trihydroxy-6-(hydroxymethyl)tetrahydro-2H-pyran-2-yl)oxy)acrylic acid] was 105 µM; that for `O=C(O)/C(=C/c1c(F)cccc1Cl)O[C@H]1O[C@@H](CO)[C@@H](O)[C@@H](O)[C@@H]1O` [RX-16, (Z)-3-(2-Chloro-6-fluorophenyl)-2-(((2R,3S,4R,5S,6S)-3,4,5-trihydroxy-6-(hydroxymethyl)tetrahydro-2H-pyran-2-yl)oxy)acrylic acid] was 6.99 µM. In assay [2], `Cc1cccc(/C=C(\O[C@H]2O[C@@H](CO)[C@@H](O)[C@@H](O)[C@@H]2O)C(=O)O)c1` [RX-18, (Z)-3-(m-Tolyl)-2-(((2R,3S,4R,5S,6S)-3,4,5-trihydroxy-6-(hydroxymethyl)tetrahydro-2H-pyran-2-yl)oxy)acrylic acid] registered a 50% effective concentration (EC50) of 9.5 µM. The same measure, in the same setting: next, `Cc1cccc(/C=C(\O[C@H]2O[C@@H](CO)[C@H](O)[C@@H](O)[C@@H]2O)C(=O)O)c1` [RX-19, (Z)-3-(m-Tolyl)-2-(((2R,3S,4R,5R,6S)-3,4,5-trihydroxy-6-(hydroxymethyl)tetrahydro-2H-pyran-2-yl)oxy)acrylic acid]: 181 µM; `O=C(O)/C(=C/c1cccc(C(F)(F)F)c1)O[C@H]1O[C@@H](CO)[C@H](O)[C@@H](O)[C@@H]1O` [RX-20, (Z)-3-(3-(Trifluoromethyl)phenyl)-2-(((2R,3S,4R,5R,6S)-3,4,5-trihydroxy-6-(hydroxymethyl)tetrahydro-2H-pyran-2-yl)oxy)acrylic acid]: 5.7 µM.

In turn, `O=C(O)/C(=C/c1ccccc1Cl)O[C@H]1O[C@@H](CO)[C@@H](O)[C@@H](O)[C@@H]1O` [RX-21, (Z)-3-(2-Chlorophenyl)-2-(((2R,3S,4R,5S,6S)-3,4,5-tri hydroxy-6-(hydroxymethyl)tetrahydro-2H-pyran-2-yl)oxy)acrylic acid] yielded a 50% effective concentration (EC50) in assay [2] of 286 µM. In the case of Insulin, in assay [1], the Glucose conc. was determined as 2.86 nM/ul, the “Glucose Uptake” value is given as 3.13 nM/ul and the “% uptake” value turned out to be 134.03%.
